These results are taken from article PMC6658617, “Structure-Guided Identification of Resistance Breaking Antimalarial N‑Myristoyltransferase Inhibitors” (Cell Chemical Biology, 2019).

As usually defined, the EC50 is the concentration at which the effect is half-maximal. As usually defined, the inhibition is the change of the read-out against control, counted positive when it falls. In general, ΔTm refers to the change in melting temperature against a reference sample. The IC50 is the midpoint of a concentration-inhibition curve.

SMILES strings stand for the structures. Where two headings read alike, the source gives them in different places.

The test system of test [1] is P. falciparum 3D7 PfNMT[G386E] clones. As to the kind of experiment: microbe, parasite or virus in culture. The class given is cell-based. The note with it: for EC50: Plasmodium falciparum.
The subject of test [2] is P. falciparum 3D7 parasites. Details: method as in Wright et al., 2014. The note with it: four times the EC50 concentration from beginning of 48-h cycle, ref Wright et al., 2014; cited from earlier work.
Test [3] concerns P. falciparum 3D7 parasites (PfNMT[WT]). As to the kind of experiment: microbe, parasite or virus in culture. The class given is cell-based. The note with it: for EC50: Plasmodium falciparum.
For test [4], the target named is T1, PvNMT[G386E] (Plasmodium vivax, UniProt A5K1A2, G386E). It counts as binding, P. vivax.
Test [5] relates to N-myristoylation in PfNMT[G386E] parasite clones. It counts as cell-based. Conditions: 140 nM, 36–45 h post-invasion.
The subject of test [6] is PfNMT[G386E] parasites. As to the kind of experiment: microbe, parasite or virus in culture. It counts as cell-based.
For test [7], the target named is HsNMT1 (Homo sapiens, UniProt P30419). It counts as biochemical. The note with it: selectivity, CPM assay.
Test [8] deals with T2, PvNMT[WT] (Plasmodium vivax, UniProt A5K1A2).
T2 construct: hexaHis (3C protease-cleavable) (N); made in house; host or cells: E. coli Rosetta-gami (DE3), pET11a
The class given is binding. The note with it: SPR sensorgrams.

In test [9] the target is T2, PvNMT[WT]. Nature of the test: biochemical. It counts as binding. The note with it: 5 μM compound, absence of MyrCoA; read-out: thermal stabilization (ΔTm) of PvNMT[WT].
Test [10] has as its system P. falciparum 3D7 parasites. As to the kind of experiment: Parasite development and GAP45 immunofluorescence at four times EC50. It counts as cell-based. Conditions: at four times the EC50 value (140 nM), 45 h PI. The protocol: For IFA, slides were air dried, fixed in 4 % paraformaldehyde (PFA) in PBS for 10–20 min, permeabilized in 0.1 % Triton X-100 in PBS for 10 min, and blocked with 3 % BSA in PBS for at least 30 min at 4°C. GAP45 detection was achieved using a primary rabbit anti-GAP45-antibody ([Rees-Channer et al., 2006]). Slides were mounted in ProLong® Gold Antifade mounting medium containing DAPI (4’,6-diamidino-2-phenylindole), and viewed on a Nikon Eclipse Ni-E imaging system with a Hamamatsu Orca-flash 4.0 digital camera and a Plan apo λ 100x/1.45 oil immersion objective. Images were captured using Nikon’s NIS-Elements imaging software generating Z-stack images of individual parasites, using deconvolution options and exporting the image as a tiff file, which was further edited using Adobe Photoshop.

The test system of test [11] is WT 3D7 parasites. Nature of the test: Flow cytometry of Hoechst-stained parasites (number of nuclei). It counts as cell-based, P. falciparum. Conditions: 140 nM for 45 h from ring stage. The protocol:
Synchronized parasites were incubated with DMSO or NMTi and samples were fixed in 2% PFA, 0.2 % glutaraldehyde for 1 hour at 45 h PI. Subsequently samples were washed in PBS and labelled with 1:500 of 10 mg/mL Hoechst 33342 for 10 min with a subsequent wash in PBS. For analysis, a Flow Cytometry CL1 Fortessa D Analyzer from BD with FACSDiva software v8.0.1 was used with the 450-50 filter counting 50,000 RBC per sample. Data were analyzed using FlowJo LLC 2006-2015 to determine the median fluorescence intensity (MFI) of each sample after gating out the RBC population using an RBC only sample as a control. The MFI of each sample was divided by the MFI of a control sample of synchronized rings with a known MFI of one nucleus.
(In general: Flow cytometry measures light scatter and fluorescence of single cells or particles in a stream.)

The target in test [12] is HsNMT2 (Homo sapiens, UniProt O60551). It counts as biochemical. The note with it: selectivity, CPM assay.
The subject of test [13] is N-myristoylation in WT 3D7 parasites. Nature of the test: YnMyr metabolic labelling of NMT substrates. The class given is cell-based, P. falciparum. The note with it: 140 nM, 36–45 h post-invasion. How it is done: Synchronized populations of stage-specific parasites were labelled with 25 μM of YnMyr for the specified length of time. Parasites were then lysed in 0.15 % saponin for 10 min on ice. The pellet was washed until the supernatant was colorless and then stored at -80°C. Thawed parasite pellets were extracted in 1 % Triton X-100, 0.1 % SDS in PBS on ice for 20 min with 1 min sonication. The protein concentration of the lysate was measured by BCA assay and adjusted to 1 mg/mL with PBS. The capture reagent was ‘clicked’ (100 μM capture reagent AzRB2, 1 mM CuSO4, 1 mM TCEP, 100 μM TBTA), the reaction was quenched with EDTA, and then precipitated proteins were washed with ice cold methanol as described previously ([Heal et al., 2011], [Wright et al., 2015]). Proteins were re-dissolved in 2 % SDS, 10 mM DTT, in PBS at 1 mg/mL and heated for 7 min at 95°C in sample loading buffer prior to SDS-PAGE.
Following the click reaction, the protein solution in PBS containing 2 % SDS, 10 mM DTT was treated with 0.2 M NaOH for 1 h at room temperature with vortexing. Samples were neutralized with an equivalent volume and concentration of HCl and diluted with PBS to 1 mg/mL prior to gel analysis.

Test [14] addresses T1, PvNMT[G386E]. As to the kind of experiment: Thermal shift assay. The class given is binding, P. vivax. Conditions: 5 μM compound.
In test [15] the target is T1, PvNMT[G386E]. Nature of the test: biochemical. It counts as biochemical, P. vivax.
The test system of test [16] is P. falciparum Dd2 parental line. Nature of the test: microbe, parasite or virus in culture. The class given is cell-based. Conditions: EC50 after 72 h (n = 3).
For test [17], the system named is IMP-1002-resistant P. falciparum Dd2 parasites (uncloned population and clones, NMT G386E). Nature of the test: microbe, parasite or virus in culture. The class given is cell-based. Conditions: for EC50: Plasmodium falciparum, DD2, 72 h.
The mark [18] stands for this setting: 3D7, read-out: Growth assay PfNMT[G386E] Clone 1 EC50.
Where [19] appears, read: 3D7, read-out: Growth assay PfNMT[G386E] Clone 2 EC50.
The mark [20] stands for this setting: 3D7, read-out: Growth assay PfNMT[WT] EC50.

T1 sequence (A5K1A2 27-410 G386E): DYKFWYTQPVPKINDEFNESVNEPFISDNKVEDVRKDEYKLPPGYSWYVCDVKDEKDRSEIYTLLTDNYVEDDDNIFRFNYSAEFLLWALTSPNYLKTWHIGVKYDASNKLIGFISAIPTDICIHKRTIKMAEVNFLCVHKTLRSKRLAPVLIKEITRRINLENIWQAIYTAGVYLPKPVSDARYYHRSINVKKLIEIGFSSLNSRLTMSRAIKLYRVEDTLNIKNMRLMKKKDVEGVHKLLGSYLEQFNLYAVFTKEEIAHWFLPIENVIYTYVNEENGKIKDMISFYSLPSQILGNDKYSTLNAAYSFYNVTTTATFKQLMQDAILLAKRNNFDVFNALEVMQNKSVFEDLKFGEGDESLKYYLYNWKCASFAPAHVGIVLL
T2 sequence (A5K1A2 entry or part of it): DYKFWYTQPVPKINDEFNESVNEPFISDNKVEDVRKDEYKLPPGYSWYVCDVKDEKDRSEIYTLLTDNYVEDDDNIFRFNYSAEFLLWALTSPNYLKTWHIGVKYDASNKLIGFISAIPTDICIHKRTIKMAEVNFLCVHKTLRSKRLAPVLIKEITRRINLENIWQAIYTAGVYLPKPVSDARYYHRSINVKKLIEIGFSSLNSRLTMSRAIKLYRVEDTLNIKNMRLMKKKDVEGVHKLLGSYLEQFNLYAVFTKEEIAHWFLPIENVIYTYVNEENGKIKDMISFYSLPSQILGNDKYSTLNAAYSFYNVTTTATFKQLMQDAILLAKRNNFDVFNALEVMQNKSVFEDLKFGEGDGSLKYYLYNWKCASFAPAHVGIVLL
Sequence of HsNMT2 (O60551 whole entry): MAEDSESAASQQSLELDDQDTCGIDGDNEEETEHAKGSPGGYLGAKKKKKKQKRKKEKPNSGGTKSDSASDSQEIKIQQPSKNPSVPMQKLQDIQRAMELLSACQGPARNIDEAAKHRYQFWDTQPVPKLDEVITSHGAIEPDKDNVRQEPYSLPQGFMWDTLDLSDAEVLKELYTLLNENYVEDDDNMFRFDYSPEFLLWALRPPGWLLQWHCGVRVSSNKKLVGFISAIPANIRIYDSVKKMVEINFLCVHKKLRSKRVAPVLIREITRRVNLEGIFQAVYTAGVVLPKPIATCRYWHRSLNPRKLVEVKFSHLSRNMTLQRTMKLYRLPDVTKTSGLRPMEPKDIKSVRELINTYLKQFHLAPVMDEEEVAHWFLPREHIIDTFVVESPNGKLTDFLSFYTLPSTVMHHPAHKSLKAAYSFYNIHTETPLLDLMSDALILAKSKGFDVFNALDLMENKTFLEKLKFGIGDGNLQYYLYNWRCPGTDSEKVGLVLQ
Sequence of HsNMT1 (P30419 whole entry): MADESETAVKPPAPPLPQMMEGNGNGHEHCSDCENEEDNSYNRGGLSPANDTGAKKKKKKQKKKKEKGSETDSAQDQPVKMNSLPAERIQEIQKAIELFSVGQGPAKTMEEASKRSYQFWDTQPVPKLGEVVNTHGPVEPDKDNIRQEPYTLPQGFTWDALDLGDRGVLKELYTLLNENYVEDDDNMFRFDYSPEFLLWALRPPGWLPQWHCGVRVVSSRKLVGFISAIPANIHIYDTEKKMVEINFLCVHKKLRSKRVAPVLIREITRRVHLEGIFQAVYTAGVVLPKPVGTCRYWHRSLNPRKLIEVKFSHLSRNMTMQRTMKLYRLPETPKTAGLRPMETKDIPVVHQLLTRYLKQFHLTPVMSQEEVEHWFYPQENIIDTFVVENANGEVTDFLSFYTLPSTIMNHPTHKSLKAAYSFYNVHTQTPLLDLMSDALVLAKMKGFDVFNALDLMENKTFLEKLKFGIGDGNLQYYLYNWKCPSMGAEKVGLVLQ

Regarding `Cc1nn(C)c(C)c1NS(=O)(=O)c1c(Cl)cc(-c2ccnc(N3CCNCC3)c2)cc1Cl` [DDD85646, reference compound], the results for the EC50 in [1] (setting [18]), in test [1] (setting [19]) and in test [3] (setting [20]) were 91 nM, 103 nM and 69 nM, respectively. Also, the “nuclei at stalled pseudoschizont stage” value in test [2] is reported as 4–6 nuclei.
For the molecule `Cc1nn(C)c(C)c1CCOc1cc(F)ccc1-c1ccc2c(c1)c(CN(C)C)nn2C` [IMP-1002, 1-(5-(4-fluoro-2-(2-(1,3,5-trimethyl-1H-pyrazol-4-yl)ethoxy)phenyl)-1-methyl-1H-indazol-3-yl)-N,N-dimethylmethanamine], in test [4], the “decrease in affinity (KD PvNMT[G386E] / KD PvNMT[WT])” value was “approximately 5 fold”. The “YnMyr labeling in PfNMT[G386E] parasite clones” value in [5] is “no reduction in labeling”. Besides, in [6] (140 nM for 45 h from ring stage), the “number of nuclei versus DMSO control, PfNMT[G386E] parasites” value is listed as “no difference”. Besides, the inhibition at 0.14 µM in test [6] (Plasmodium falciparum, read-out: inhibition of [G386E] parasites) is 0%. Besides, in test [7], the “HsNMT1/PvNMT fold difference in IC50” value is recorded as 2.32. Moreover, the “dissociation rate with PvNMT[WT]” value in test [8] is reported as “slow dissociation rate”. Also, in test [9], the ΔTm at 5 µM is above 8.8 °C. Also, the “Ratio PfNMT[G386]/PfNMT[WT] EC50, Clone 1” value in [1] (EC50 of [G386E]/[WT], Clone 1) stood at 24. Moreover, the “Ratio PfNMT[G386]/PfNMT[WT] EC50, Clone 2” value in [1] (EC50 of [G386E]/[WT], Clone 2) was 21. The EC50 in [1] (setting [18]) worked out at 230 nM; in [1] (setting [19]), 201 nM; in [3] (setting [20]), 9.6 nM; in [3] (3D7 parasites, initial EC50 determination (Figures 2A, S2A), read-out: parasite growth EC50), 34 nM; in test [16], 35 nM; in test [16] (Plasmodium falciparum, DD2, 72 h) it was 20.4 ± 4.9 nM. For the same molecule, the EC50 in [17] (read-out: EC50 Clone 01) was 270 ± 40 nM; in test [17] (read-out: EC50 Clone 02) it was 300 ± 140 nM; in test [17] (read-out: EC50 Clone 03) it was 240 ± 63 nM; in test [17] (read-out: EC50 uncloned population) it was 320 ± 50 nM. The “accumulation of NMT substrate GAP45” value in test [10] is recorded as “inhibiting accumulation”. For the same molecule, the “number of nuclei versus DMSO control, WT parasites” value in test [11] was “reduced number of nuclei”. The “HsNMT2/PvNMT fold difference in IC50” value in test [12] is on record as 3.84. Moreover, the “YnMyr labeling in WT parasites” value in test [13] is reported as “clear decrease in YnMyr labeling”. In [3], the “fold more potent in killing parasites than DDD85646” value came out at 4 fold. The “thermal stabilization (ΔTm) of PvNMT[G386E]” value in test [14] (absence of MyrCoA) was found to be 1.8 °C. In test [14] (absence of MyrCoA (Table S4A), in favor of WT), the “ΔΔTm between PvNMT[WT] and PvNMT[G386E]” value was above 7.0 °C. In test [15], the “IC50 ratio of G386E/WT on average” value is on record as 2.6. In addition, in test [15], the “Ratio PvNMT[G386E]/PvNMT[WT] IC50, Replicate 1” value is given as 3.1. In addition, the “Ratio PvNMT[G386E]/PvNMT[WT] IC50, Replicate 2” value in test [15] turned out to be 3.4. Moreover, the “Ratio PvNMT[G386E]/PvNMT[WT] IC50, Replicate 3” value in test [15] came out at 1.4. Further, the half-maximal inhibitory concentration (IC50) in test [15] (PvNMT[G386E] IC50, Replicate 1) amounted to 6 nM; in test [15] (PvNMT[G386E] IC50, Replicate 2) it was 7.1 nM; in [15] (PvNMT[G386E] IC50, Replicate 3), 6.9 nM. Also, the “increase in EC50 of IMP-1002-resistant clones” value in [17] (resistant Dd2 clones versus Dd2 parental line) came out at 14 fold.
